Consider two molecules from publication PMC12316308, “Interactions of substrates and phosphinyl containing inhibitors with bacterial and human zinc proteases” (PLOS One, 2025).

Several values for one entry are separate records, joined by “and”; a condition that tells them apart may be missing. Equal values may be shown once.

One assay relates to MMP-12. Also noted: method as in PMID 27996256, PMID 23343195. As to conditions: cited from earlier work.
Assay [1] addresses T1, human MT1-MMP/MMP-14 (catalytic domain) (Homo sapiens, UniProt P50281).
T1 construct: human MT1-MMP/MMP-14 (catalytic domain); purchased Calbiochem (San Diego, CA, USA)
Put plainly: Enzyme inhibition kinetics, fluorogenic substrate ES001. Type of assay: biochemical. The note with it: inhibitor 10 μM.

With `NC(=O)C(CCC(=O)O)NC(=O)C(CCC(=O)O)NC(=O)C(Cc1cc(-c2ccc(-c3cccc(Cl)c3)cc2)no1)CP(=O)(O)c1ccc(Br)cc1` (stereo not drawn) [H-1], the “pH dependence of Ki” value in the assay with MMP-12 is “increasing approximately ten times for each unit increase in buffer pH”. On to `NC(=O)C(Cc1c[nH]c2ccccc12)NC(=O)C(CCCc1ccccc1)CP(=O)(O)C(Cc1ccccc1)NC(=O)OCc1ccccc1` (stereo not drawn) [H-2], for which the “vi/v0 (relative enzyme activity with inhibitor), single determinations” value in assay [1] (preincubation 15 min) was 0.1646 and 0.1715 and 0.1368 and 0.1654; in assay [1] (preincubation 30 min), 0.1465 and 0.1449 and 0.1477 and 0.1505.
